Measurements taken from PMC11403423 (iScience, 2024).

Columns and labels:
[1] = system: #1-LTL+ and #2-LTL+ PToCs; experiment: Nephrotoxicity testing, LDH release; format: cell-based, human; settings: for Effect on cisplatin-induced LDH release: cimetidine 10 mM, cisplatin 100 μM
MRPs [2] = experiment: Fluorescein uptake and transport with MK571 in #1-LTL+ PToC; format: cell-based, human
MRPs [3] = experiment: Transcellular transport assay of OAT1/3 substrates with MK571 in #1-LTL+ PToC; settings: 10 μM MK571
OAT1 = target: T1, OAT1 (Homo sapiens, UniProt Q4U2R8); experiment: Transcellular transport assay of OAT1 substrates; settings: 10 μM substrate; #1-LTL+ PToC
T1 sequence (Q4U2R8 1-563): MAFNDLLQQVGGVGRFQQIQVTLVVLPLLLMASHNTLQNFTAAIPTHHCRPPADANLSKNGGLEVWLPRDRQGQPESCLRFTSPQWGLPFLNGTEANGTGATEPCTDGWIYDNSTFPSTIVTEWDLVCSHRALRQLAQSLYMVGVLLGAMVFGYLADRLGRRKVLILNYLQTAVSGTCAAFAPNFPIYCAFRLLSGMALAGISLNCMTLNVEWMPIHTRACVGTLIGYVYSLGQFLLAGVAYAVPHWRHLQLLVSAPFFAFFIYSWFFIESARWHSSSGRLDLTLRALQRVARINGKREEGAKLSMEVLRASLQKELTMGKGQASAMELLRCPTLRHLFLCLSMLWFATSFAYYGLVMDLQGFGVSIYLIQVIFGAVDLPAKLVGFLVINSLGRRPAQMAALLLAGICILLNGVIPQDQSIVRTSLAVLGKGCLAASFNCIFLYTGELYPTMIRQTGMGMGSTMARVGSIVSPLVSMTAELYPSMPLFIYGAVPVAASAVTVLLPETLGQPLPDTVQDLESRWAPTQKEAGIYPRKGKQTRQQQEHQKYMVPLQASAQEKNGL

#1-LTL+ PToC = experiment: LIVE/DEAD cell viability assay; format: cell-based, human; settings: cimetidine with cisplatin
OAT1/3 [4] = experiment: Fluorescein uptake assay; format: cell-based, human; settings: 2 μM fluorescein, 30 min
OAT1/3 [5] = experiment: Transported fluorescein amount; format: in vitro ADME, human; settings: plate reader; 30 min
OCT2 and MATE1 = experiment: Transcellular transport assay of metformin in PToC, LC/MS
OAT3 = target: T2, OAT3 (Homo sapiens, UniProt Q8TCC7); experiment: Transcellular transport assay of OAT3 substrate
T2 sequence (Q8TCC7 1-542): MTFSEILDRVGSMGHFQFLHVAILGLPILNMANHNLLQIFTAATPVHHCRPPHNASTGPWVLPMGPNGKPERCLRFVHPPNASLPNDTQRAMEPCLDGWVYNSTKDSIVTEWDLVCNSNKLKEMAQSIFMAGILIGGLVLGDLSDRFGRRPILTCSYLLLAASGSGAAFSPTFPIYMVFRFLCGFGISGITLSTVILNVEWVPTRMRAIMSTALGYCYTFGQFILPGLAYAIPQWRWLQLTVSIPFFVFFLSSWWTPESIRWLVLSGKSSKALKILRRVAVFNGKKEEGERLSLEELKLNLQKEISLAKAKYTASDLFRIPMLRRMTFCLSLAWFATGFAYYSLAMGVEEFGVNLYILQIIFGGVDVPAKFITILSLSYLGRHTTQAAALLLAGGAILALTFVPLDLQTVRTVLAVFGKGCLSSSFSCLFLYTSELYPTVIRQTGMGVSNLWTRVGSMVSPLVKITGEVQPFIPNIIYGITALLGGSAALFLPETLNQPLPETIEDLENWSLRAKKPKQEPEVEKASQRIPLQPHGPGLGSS

P-gp = P-gp (Homo sapiens, UniProt P08183); settings: #2-LTL+ PToC
Sequence of P-gp (P08183 whole entry): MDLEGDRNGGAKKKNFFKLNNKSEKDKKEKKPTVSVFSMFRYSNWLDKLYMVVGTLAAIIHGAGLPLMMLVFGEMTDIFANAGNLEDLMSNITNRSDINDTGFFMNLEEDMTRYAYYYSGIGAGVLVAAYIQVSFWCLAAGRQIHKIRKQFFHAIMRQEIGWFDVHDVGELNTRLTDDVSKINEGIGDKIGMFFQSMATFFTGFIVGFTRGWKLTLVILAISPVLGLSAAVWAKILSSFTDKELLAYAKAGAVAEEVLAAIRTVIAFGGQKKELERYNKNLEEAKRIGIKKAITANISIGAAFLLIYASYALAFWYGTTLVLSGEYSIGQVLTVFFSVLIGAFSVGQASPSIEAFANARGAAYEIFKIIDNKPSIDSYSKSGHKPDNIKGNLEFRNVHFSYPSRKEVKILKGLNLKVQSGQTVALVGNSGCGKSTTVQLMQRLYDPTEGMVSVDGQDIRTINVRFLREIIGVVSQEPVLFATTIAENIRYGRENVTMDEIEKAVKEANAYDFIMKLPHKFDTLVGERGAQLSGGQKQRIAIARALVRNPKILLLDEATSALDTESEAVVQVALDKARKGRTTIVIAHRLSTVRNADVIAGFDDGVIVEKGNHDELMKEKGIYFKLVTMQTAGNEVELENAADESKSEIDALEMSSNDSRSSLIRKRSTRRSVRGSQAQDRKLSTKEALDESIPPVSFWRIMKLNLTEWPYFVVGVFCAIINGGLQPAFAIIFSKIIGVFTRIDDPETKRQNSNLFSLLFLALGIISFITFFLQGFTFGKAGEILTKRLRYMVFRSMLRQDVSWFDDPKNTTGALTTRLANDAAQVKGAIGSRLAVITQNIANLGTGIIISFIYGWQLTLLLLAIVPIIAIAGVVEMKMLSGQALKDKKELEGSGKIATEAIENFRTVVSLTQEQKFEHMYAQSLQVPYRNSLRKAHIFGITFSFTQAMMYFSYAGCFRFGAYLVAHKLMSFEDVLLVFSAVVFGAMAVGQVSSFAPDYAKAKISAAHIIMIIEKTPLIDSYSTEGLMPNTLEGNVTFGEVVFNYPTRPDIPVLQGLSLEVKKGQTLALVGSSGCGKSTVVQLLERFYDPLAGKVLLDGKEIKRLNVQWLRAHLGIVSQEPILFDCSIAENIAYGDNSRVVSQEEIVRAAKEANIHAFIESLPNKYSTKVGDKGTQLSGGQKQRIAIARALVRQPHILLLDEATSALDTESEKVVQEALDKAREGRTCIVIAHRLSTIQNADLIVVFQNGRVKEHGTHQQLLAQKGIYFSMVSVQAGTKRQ

Question: `COc1cccc2c1cc([N+](=O)[O-])c1c(C(=O)O)cc3c(c12)OCO3` [AA, Aristolochic acid I] was tested. Which “Normalized LDH release in #1-LTL+ compared to #2-LTL+” value ([1]; 50 μM, 24 h) did it give?
Answer: Its value is “markedly higher”.

Question: What about the “Normalized LDH release compared to control group without aristolochic acid” value ([1]; 50 μM, basal, 24 h, #1-LTL+ and #2-LTL+ PToCs) of the same compound?
Answer: Its value is “significantly higher”.

Question: Which results are given for `CN(C)C(=O)CCSC(SCCC(=O)O)c1cccc(/C=C/c2ccc3ccc(Cl)cc3n2)c1` (stereo not drawn) [MK571]?
Answer: Fluorescein transcellular transport (MRPs [2]): reduction; Intracellular fluorescein accumulation (fluorescence intensity) (MRPs [2]): notable increase; Effect on OAT1 excretion of PAH (MRPs [3]): significant impairment; Effect on OAT1 excretion of adefovir (MRPs [3]): significant impairment; Effect on OAT3 transport of rosuvastatin (MRPs [3]): no substantial effect

Question: Which “Basal to apical (b → a) transport (Papp) in #1-LTL+ versus other PToC models” value (OAT1) does the source give for `Nc1ncnc2c1ncn2CCOCP(=O)(O)O` [adefovir] here?
Answer: Its value is “notably higher”.

Question: With `CN/C(=N/CCSCc1nc[nH]c1C)NC#N` [cimetidine] as the compound, how does the “Effect on cisplatin-induced cell death (LIVE/DEAD)” value (#1-LTL+ PToC) read?
Answer: Its value is “reduction in cell death”.

Question: And the “Effect on cisplatin-induced LDH release” value ([1]; 24 h, #1-LTL+)?
Answer: Its value is “significant reduction”.

Question: What about the “Effect on cisplatin-induced LDH release” value ([1]; 24 h, #2-LTL+) of the same compound?
Answer: The value was “less pronounced”.

Question: What about the “Effect on cisplatin-induced LDH release” value ([1]; 48 h, #1-LTL+ PToC) of the same compound?
Answer: Its value is “no difference among all conditions”.

Question: What about the “Effect on cisplatin-induced LDH release” value ([1]; 48 h, #2-LTL+ PToC) of the same compound?
Answer: Its value is “notable reduction”.

Question: How did the “Fluorescein uptake of #2-LTL+ PToC relative to #1-LTL+ PToC” value (OAT1/3 [4]) turn out when `O=C1OC2(c3ccc(O)cc3Oc3cc(O)ccc32)c2ccccc21` [fluorescein] was run?
Answer: The value was “approximately 60%”.

Question: And the “Fluorescein uptake compared to RPTEC” value (OAT1/3 [4]; #1-LTL+ and #2-LTL+ PToC, absence of probenecid)?
Answer: Its value is “significantly higher fluorescein uptake”.

Question: And the “Transcellular transport of fluorescein in #2-LTL+ PToC relative to #1-LTL+ PToC” value (OAT1/3 [5])?
Answer: Its value is 10%.

Question: How did the “Difference in ER between #1-LTL+ and #2-LTL+ PToCs” value (OCT2 and MATE1) turn out when `CN(C)C(=N)N=C(N)N` [metformin] was run?
Answer: The value was “no significant differences”.

Question: What about the “Transcellular basal to apical (b → a) transport rate, comparison of PToCs” value (OCT2 and MATE1; #1-LTL+ PToC versus #2-LTL+ and RPTEC) of the same compound?
Answer: The value was “highest transport rates”.

Question: `CCCN(CCC)S(=O)(=O)c1ccc(C(=O)O)cc1` [probenecid] was tested. Which “Impact on rosuvastatin transport” value (OAT3; probenecid 100 μM, #1-LTL+ and #2-LTL+) did it give?
Answer: The value was “minimal impact”.

Question: How did the “Basal to apical (b → a) transport rate compared with RPTEC” value (P-gp) turn out when `C=C[C@H]1C[N@@]2CC[C@H]1C[C@@H]2[C@@H](O)c1ccnc2ccc(OC)cc12` [quinidine] was run?
Answer: The value was “less basal to apical (b → a) transport rate”.

Question: For `CC(C)c1nc(N(C)S(C)(=O)=O)nc(-c2ccc(F)cc2)c1/C=C/[C@@H](O)C[C@@H](O)CC(=O)O` [rosuvastatin], which “Basal to apical (b → a) transport (Papp) in #1-LTL+ versus other PToC models” value (OAT3; 10 μM substrate, #1-LTL+ PToC) is on record?
Answer: The value was “notably higher”.
